# Measured values: patent publication EP1832586A1, “Thiazole-piperidine derivatives in treatment of diseases of liver and the pancreas” (Oridis Biomed Forschungs- und Entwicklungs GmbH, priority 2006, dated 2007)
# Test system: HuH7
# Assay: CellTiter-Glo luminescent cell viability (proliferation) assay, HuH7
# Assay type: cell-based
# Settings: Homo sapiens, Huh-7, 48 h, inhibition of HuH7 (human hepatoma) proliferation, 48 hours incubation, 10% FCS
# Procedure: (§1) To practically assess the impact of the thiazole-piperidine derivatives, e.g. derivatives of piperidinyl-thiazole carboxylic acid and/or piperidinyl thiazole carboxamide, in the treatment and/or prevention of diseases according to the invention, the inhibition of cell proliferation is determined by using a luminescent cell viability assay (CellTiter-Glo®; Promega, Madison, USA). The assay is based on the relation that the ATP content is directly proportional to the number of cells present in the culture. The CellTiter-Glo® assay is performed to measure the proliferation rate of human hepatoma (HuH7, PLC/PRF/5, Hep3B, SK-Hep1), human hepatoblastoma (HepG2), human colon carcinoma (CX-2), human breast cancer (SK-Br-3), human ovarian carcinoma (HeLa) and human pancreatic carcinoma (DAN-G) cell lines. […] In particular, the compound according to formula (1) wherein R^1 is 4-isopropoxycarbonylphenyl, R^2 is 3-indolylmethyl, R^3 is hydrogen, R^4 is hydrogen, n is zero, A is a single bond, B is carbonyl, and wherein the residue R^1NR^3CO is connected to the carbon atom bound to nitrogen of the thiazole ring (compound no. XI in Table 1) inhibits proliferation of the human cell lines HepG2 and Hep3B with 10.8 and 3.5 µM, respectively.
# (§2) To determine the inhibition of cell proliferation a luminescent cell viability assay (CellTiter-Glo®; Promega, Madison, USA) is implemented. The assay is based on the relation that the ATP content is directly proportional to the number of cells present in the culture (Technical Bulletin No. 228 "CellTiter-Glo® Luminescent Cell viability Assay", Revised 2/04. Promeg, Madison, USA). The CellTiter-Glo® assay is performed to measure the proliferation rate of human hepatoma (HuH7, PLC/PRF/5, Hep3B, SK-Hep1), human hepatoblastoma (HepG2), human colon carcinoma (CX-2), human breast cancer (SK-Br-3), human ovarian carcinoma (HeLa) and human pancreatic carcinoma (DAN-G) cell lines. 3000 viable cells (viability ≥ 90%) are seeded in opaque-walled 96-well plates and incubated for 24 hours in DMEM, supplemented with 2 mM glutamin. Cell proliferation is stimulated by addition of FCS to a final concentration of 10% (v/v). Simultaneously the compounds (see Table 1 and 2) are added in a concentration range of 0 to 20 µM. Triplicates are measured for each concentration. Cells and compounds (see Table 1 and 2) are incubated for a period of 48 hours in a volume of 140 µl cell culture medium (10% (v/v) FCS, 2 mM Glutamin, DMEM). The compounds according to the invention are dissolved in 60% to 100% (v/v) DMSO at a concentration of 2 mM. The final DMSO concentration under assay conditions never exceeds 1% (v/v). Throughout the assay cells are kept in a humidified incubator (95% rH) at 37°C and 5% CO2.
# (§3) The final cell number is determined after 48 hour of incubation. Therefore 140 µl CellTiter-Glo®Reagent is added in each well. The contents are mixed on an orbital shaker for 2 minutes at room temperature. After subsequent incubation for additional 10 minutes at room temperature the luminescence signal is recorded within 30 min. EC50 values are calculated using the four-parametric Hill equation (Sigma Plot). Control values are: • 1) 10% (v/v) FCS, 2 mM glutamin, DMEM -> maximum cell number • 2) 2 mM glutamin, DMEM -> initial cell number
row,Compound,EC50
1,COc1ccc(CNC(=O)c2csc(C3CCN(C(=O)CC4C=Nc5ccccc54)CC3)n2)cc1OC (stereo not shown) [IV],3.76 µM
2,O=C(CC1C=Nc2ccccc21)N1CCC(c2nc(C(=O)N3CCN(c4ncccn4)CC3)cs2)CC1 (stereo not shown) [LIII],1.63 µM
3,O=C(CC1C=Nc2ccccc21)N1CCC(c2nc(C(=O)N3CCN(c4ccc(Cl)c(Cl)c4)CC3)cs2)CC1 (stereo not shown) [LI],4.9 µM
4,C#CC1(NC(=O)c2csc(C3CCN(C(=O)CC4C=Nc5ccccc54)CC3)n2)CCCCC1 (stereo not shown) [LVII],5.1 µM
5,COc1ccc(C(=O)N2CCC(c3nc(C(=O)Nc4cc(-c5ccco5)n[nH]4)cs3)CC2)c(OC)c1OC [LVI],3.6 µM
6,Cc1ccc(C(=O)NNC(=O)c2csc(C3CCN(C(=O)CC4C=Nc5ccccc54)CC3)n2)s1 (stereo not shown) [LV],4.04 µM
7,CC(C)(Cc1ccc(F)cc1)NC(=O)c1csc(C2CCN(C(=O)CC3C=Nc4ccccc43)CC2)n1 (stereo not shown) [VI],4.81 µM
8,CCOc1ccccc1N1CCN(C(=O)c2csc(C3CCN(C(=O)CC4C=Nc5ccccc54)CC3)n2)CC1 (stereo not shown) [XII],13.4 µM
9,Cc1csc(NC(=O)c2csc(C3CCN(C(=O)CC4C=Nc5ccccc54)CC3)n2)c1C(N)=O (stereo not shown) [XIV],12.9 µM
10,CS(=O)(=O)c1ccc(CNC(=O)c2csc(C3CCN(C(=O)CC4C=Nc5ccccc54)CC3)n2)cc1 (stereo not shown) [XIX],8.5 µM
11,O=C(CC1C=Nc2ccccc21)N1CCC(c2nc(C(=O)N3CCN(c4c(Cl)cncc4Cl)CC3)cs2)CC1 (stereo not shown) [XLIII],4.74 µM
12,Cc1cnc(NC(=O)c2csc(C3CCN(C(=S)Nc4ccc(N(C)C)cc4)CC3)n2)s1 [XLII],2.2 µM
13,Cc1nc(C)c(C(=O)N2CCC(c3nc(C(=O)Nc4cc(-c5ccco5)n[nH]4)cs3)CC2)s1 [XLVIII],13.9 µM

# Other lines, results leading:
row,EC50,Compound
1,1.39 µM,O=C(Nc1ccc2ncccc2c1)c1csc(C2CCN(C(=O)CC3C=Nc4ccccc43)CC2)n1 (stereo not shown) [III]
2,19.5 µM,O=C(Nc1ccc2c(c1)OCCO2)c1csc(C2CCN(C(=O)NC3C=C(c4ccccc4)N=N3)CC2)n1 (stereo not shown) [LII]
3,5.5 µM,Cn1nc(-c2ccccc2)cc1NC(=O)c1csc(C2CCN(C(=O)C3CCCCC3)CC2)n1 [LIV]
4,7.13 µM,O=C(Nc1ccc2c(c1)C(=O)OC2)c1csc(C2CCN(C(=O)CC3C=Nc4ccccc43)CC2)n1 (stereo not shown) [LIX]
5,4.58 µM,CCOc1cccc(C(=O)NNC(=O)c2csc(C3CCN(C(=O)CC4C=Nc5ccccc54)CC3)n2)c1 (stereo not shown) [LVIII]
6,5.4 µM,C#CCOC(=O)N1CCC(c2nc(C(=O)Nc3[nH]nc(C)c3-c3ccccc3)cs2)CC1 [L]
7,4.68 µM,Cc1ccc2cc(NC(=O)c3csc(C4CCN(C(=O)CC5C=Nc6ccccc65)CC4)n3)ccc2n1 (stereo not shown) [V]
8,5.3 µM,COc1ccc(NC(=O)c2csc(C3CCN(C(=O)NC4C=C(c5ccccc5)N=N4)CC3)n2)cn1 (stereo not shown) [XIII]
9,2.53 µM,O=C(Nc1cc(-c2ccccc2)n[nH]1)c1csc(C2CCN(C(=O)c3cc4ccccc4o3)CC2)n1 [XLIV]
10,3.03 µM,Cn1nc(-c2ccccc2)cc1NC(=O)c1csc(C2CCN(C(=O)c3c(F)cccc3Cl)CC2)n1 [XLIX]
11,5.9 µM,COc1ccc(CNC(=O)c2csc(C3CCN(C(=O)CC4C=Nc5ccccc54)CC3)n2)cc1 (stereo not shown) [XLI]

# Test system: DAN-G
# Assay: CellTiter-Glo luminescent cell viability (proliferation) assay, DAN-G
# Assay type: cell-based
# Settings: DAN-G (human pancreatic carcinoma) proliferation, 48 hours incubation, 10% FCS
# Procedure: as §1, §2, §3
row,Compound,EC50
1,O=C(Nc1ccc2ncccc2c1)c1csc(C2CCN(C(=O)CC3C=Nc4ccccc43)CC2)n1 (stereo not shown) [III],1.99 µM
2,COc1ccc(CNC(=O)c2csc(C3CCN(C(=O)CC4C=Nc5ccccc54)CC3)n2)cc1OC (stereo not shown) [IV],7.52 µM
3,O=C(CC1C=Nc2ccccc21)N1CCC(c2nc(C(=O)N3CCN(c4ncccn4)CC3)cs2)CC1 (stereo not shown) [LIII],18.2 µM
4,COc1ccc(C(=O)N2CCC(c3nc(C(=O)Nc4cc(-c5ccco5)n[nH]4)cs3)CC2)c(OC)c1OC [LVI],16.9 µM
5,CC(C)(Cc1ccc(F)cc1)NC(=O)c1csc(C2CCN(C(=O)CC3C=Nc4ccccc43)CC2)n1 (stereo not shown) [VI],11.2 µM
6,Cc1ccc2cc(NC(=O)c3csc(C4CCN(C(=O)CC5C=Nc6ccccc65)CC4)n3)ccc2n1 (stereo not shown) [V],6.9 µM
7,COc1ccc(NC(=O)c2csc(C3CCN(C(=O)NC4C=C(c5ccccc5)N=N4)CC3)n2)cn1 (stereo not shown) [XIII],8.9 µM

# Test system: CX-2
# Assay: CellTiter-Glo luminescent cell viability (proliferation) assay, CX-2
# Assay type: cell-based
# Settings: CX-2 (human colon carcinoma) proliferation, 48 hours incubation, 10% FCS
# Procedure: as §1, §2, §3
row,Compound,EC50
1,O=C(Nc1ccc2ncccc2c1)c1csc(C2CCN(C(=O)CC3C=Nc4ccccc43)CC2)n1 (stereo not shown) [III],9.3 µM
2,COc1ccc(CNC(=O)c2csc(C3CCN(C(=O)CC4C=Nc5ccccc54)CC3)n2)cc1OC (stereo not shown) [IV],> 20 µM
3,O=C(CC1C=Nc2ccccc21)N1CCC(c2nc(C(=O)N3CCN(c4ncccn4)CC3)cs2)CC1 (stereo not shown) [LIII],> 20 µM
4,COc1ccc(C(=O)N2CCC(c3nc(C(=O)Nc4cc(-c5ccco5)n[nH]4)cs3)CC2)c(OC)c1OC [LVI],> 20 µM
5,CC(C)(Cc1ccc(F)cc1)NC(=O)c1csc(C2CCN(C(=O)CC3C=Nc4ccccc43)CC2)n1 (stereo not shown) [VI],19.2 µM
6,Cc1ccc2cc(NC(=O)c3csc(C4CCN(C(=O)CC5C=Nc6ccccc65)CC4)n3)ccc2n1 (stereo not shown) [V],> 20 µM
7,COc1ccc(NC(=O)c2csc(C3CCN(C(=O)NC4C=C(c5ccccc5)N=N4)CC3)n2)cn1 (stereo not shown) [XIII],> 20 µM

# Test system: HeLa
# Assay: CellTiter-Glo luminescent cell viability (proliferation) assay, HeLa
# Assay type: cell-based
# Settings: Hela (human ovarian carcinoma [sic]) proliferation, 48 hours incubation, 10% FCS
# Procedure: as §1, §2, §3
row,Compound,EC50
1,COc1ccc(CNC(=O)c2csc(C3CCN(C(=O)CC4C=Nc5ccccc54)CC3)n2)cc1OC (stereo not shown) [IV],10.3 µM
2,O=C(CC1C=Nc2ccccc21)N1CCC(c2nc(C(=O)N3CCN(c4ncccn4)CC3)cs2)CC1 (stereo not shown) [LIII],23.6 µM
3,COc1ccc(C(=O)N2CCC(c3nc(C(=O)Nc4cc(-c5ccco5)n[nH]4)cs3)CC2)c(OC)c1OC [LVI],10.5 µM
4,CC(C)(Cc1ccc(F)cc1)NC(=O)c1csc(C2CCN(C(=O)CC3C=Nc4ccccc43)CC2)n1 (stereo not shown) [VI],13.5 µM

# The remaining lines, values ahead:
row,EC50,Compound
1,3.95 µM,O=C(Nc1ccc2ncccc2c1)c1csc(C2CCN(C(=O)CC3C=Nc4ccccc43)CC2)n1 (stereo not shown) [III]
2,8.79 µM,Cc1ccc2cc(NC(=O)c3csc(C4CCN(C(=O)CC5C=Nc6ccccc65)CC4)n3)ccc2n1 (stereo not shown) [V]
3,10.1 µM,COc1ccc(NC(=O)c2csc(C3CCN(C(=O)NC4C=C(c5ccccc5)N=N4)CC3)n2)cn1 (stereo not shown) [XIII]

# Test system: SK-Br-3
# Assay: CellTiter-Glo luminescent cell viability (proliferation) assay, SK-Br-3
# Assay type: cell-based
# Settings: Sk-Br-3 (human breast cancer) proliferation, 48 hours incubation, 10% FCS
# Procedure: as §1, §2, §3
row,Compound,EC50
1,COc1ccc(CNC(=O)c2csc(C3CCN(C(=O)CC4C=Nc5ccccc54)CC3)n2)cc1OC (stereo not shown) [IV],> 20 µM
2,O=C(CC1C=Nc2ccccc21)N1CCC(c2nc(C(=O)N3CCN(c4ncccn4)CC3)cs2)CC1 (stereo not shown) [LIII],19.5 µM
3,COc1ccc(C(=O)N2CCC(c3nc(C(=O)Nc4cc(-c5ccco5)n[nH]4)cs3)CC2)c(OC)c1OC [LVI],> 20 µM
4,CC(C)(Cc1ccc(F)cc1)NC(=O)c1csc(C2CCN(C(=O)CC3C=Nc4ccccc43)CC2)n1 (stereo not shown) [VI],10.4 µM

# Now from value to compound:
row,EC50,Compound
1,7.07 µM,O=C(Nc1ccc2ncccc2c1)c1csc(C2CCN(C(=O)CC3C=Nc4ccccc43)CC2)n1 (stereo not shown) [III]
2,10.8 µM,Cc1ccc2cc(NC(=O)c3csc(C4CCN(C(=O)CC5C=Nc6ccccc65)CC4)n3)ccc2n1 (stereo not shown) [V]
3,12.3 µM,COc1ccc(NC(=O)c2csc(C3CCN(C(=O)NC4C=C(c5ccccc5)N=N4)CC3)n2)cn1 (stereo not shown) [XIII]
